# Assays:
# Sprague-Dawley rats = assay: Blood pressure study in L-NAME (nitric oxide deficient) model of hypertension, dietary OPP; type: in vivo, rat
# From the text: In order to determine the effect of OPP in blood pressure reduction, a method utilizing a nitric oxide (NO) deficient model of hypertension was used. This animal model involves the inhibition of endogenous NO production with L-NAME (N^G-nitro-L-arginine methyl ester) that leads to elevation in BP.
# 12 weeks old Sprague-Dawley rats were fed a standard laboratory rat diet, formulated to contain low n-3 polyunsaturated fatty acids (Glen Forrest Stock feeders, Glen Forrest, W.A., Australia). The OPP was provided as a drink at a rate of 30 ml/rat/day. OPP were provided at two different strengths—as liquid (1500 GAE) and in a concentrated liquid form at 3000 GAE (prepared using the freeze-dried preparation at 30,000 GAE). Rats were pre-treated for four weeks prior to challenge with L-NAME. […]
# BP was monitored fortnightly by standard photoelectric tail-cuff procedure (IITC, Life Sciences, Woodlands Hills, Calif., USA) as described in detail previously. […] The pulse was detected as the cuff pressure was reduced and the pressure at which the first pulse detected was taken as the systolic blood pressure and computed automatically (IITC software package). The ambient temperature was carefully controlled (30° C.) and the average of 3-4 readings was taken as the final reading.
# human LDL = assay: Copper-mediated LDL oxidation, conjugated diene formation; type: biochemical; conditions: for Lag time (mins), conjugated diene formation: control LDL 67 ± 12, means ± SD
# Protocol: Blood from six healthy normocholesterolemic adult volunteers was collected into vacutainer tubes containing EDTA and centrifuged (1000×g for 15 min) to isolate plasma. LDL was isolated by density gradient centrifugation in a Beckman Ultracentrifuge using a 50.2 Ti rotor, based on the method of Sundram et al. (2). The LDL layer following sequential isolation at density 1.063 kg/L was removed and dialyzed against 4 L of PBS, pH 7.4 and purged with nitrogen for 12-18 h. After dialysis, the cholesterol concentration in the pooled LDL sample was determined using an automated Cholesterol assay. The LDL fraction was used immediately or immediately stored under nitrogen at 4° C. and analyzed for LDL oxidation within 48 h.
# To evaluate the ability of OPP to inhibit copper (Cu) mediated LDL oxidation, conjugated dienes (CD) were continually monitored at 5-min intervals at 37° C. by UV absorption at 234 nm. LDL oxidation was initiated by addition of copper sulfate at a final concentration of 6 μmol/L to 90 μg of LDL cholesterol in a final volume of 1 mL. The purified test compounds (catechin obtained from Sigma Chemical) and OPP extracts were added immediately before the addition of the oxidant. The extracts were added at a final concentration range of 0.25-1.0 μmol/L GAB and the purified compounds at a final concentration of 0.25 or 0.5 μmol/L. All LDL oxidations were performed in triplicate. The lag time in the presence or absence of the test compounds was determined as the intercept of the slopes for the lag and propagation phases. This was compared with the control oxidized LDL to determine the percentage of LDL oxidation inhibition.
Compound,"initial rise in BP on introduction of L-NAME (Sprague-Dawley rats; L-NAME 10 mg/Kg, OPP pre-treatment 4 weeks) [mmHg]","final BP values (Sprague-Dawley rats; conclusion of experiment, L-NAME 10 then 15 mg/Kg, OPP drink 30 ml/rat/day, tail-cuff systolic BP, n=12) [mmHg]","Lag time (mins), conjugated diene formation (human LDL; 0.25 μmol/L) [min]",LDL lag phase lengthened / increase in lag time relative to control LDL (human LDL; 0.5 μmol/L) [%],"Lag time (mins), conjugated diene formation (human LDL; 0.5 μmol/L) [min]"
"COC(=O)[C@@H](N)CCCNC(=N)N[N+](=O)[O-] [L-NAME, N^G-nitro-L-arginine methyl ester]",18,176±2.5,,,
catechin,,,87 ± 13,55,104 ± 10

# Reference: US8771764B2, “Composition and method for improving vascular health” (Malaysian Palm Oil Board, priority 2009, dated 2014)
